{"source": "patent US8071630B2", "about": "(priority 2002, dated 2011)", "key": {"[1]": {"system": "ouabain-induced arrhythmias", "conditions": "in vivo; cited from earlier work"}, "[2]": {"system": "isoprenaline-induced tachycardia", "conditions": "in vivo; cited from earlier work"}, "[3]": {"system": "Aspergillus awamori transformed with the aequorin gene", "test": "Example 6: aequorin luminometry of [Ca2+]c response (toxicity) in Aspergillus awamori", "type": "cell-based", "conditions": "FIG. 1A"}, "[4]": {"test": "Stability in aqueous solution", "type": "physicochemical", "conditions": "only freshly made stocks are effective; product a lot less toxic", "description": "4 pairs of optical enantiomers or salts thereof of the following chemicals were used in this study: • (R)-(+)-α-Methylbenzyl isocyanate and (S)-(−)-α-Methylbenzyl isocyanate. Only freshly made stocks of α-Methylbenzyl […] are effective."}}, "note": "Where a name gives a salt, the structure may show the parent alone.", "data": [{"molecule": "CC(C)NCC(O)COc1cccc2ccccc12", "note": "(racemic) [propranolol hydrochloride]", "values": [{"measurement": "effectiveness in abolishing ouabain-induced arrhythmias", "setting": "[1]", "result": "equally effective"}]}, {"molecule": "CC(C)NCC(O)COc1cccc2ccccc12", "note": "(single isomer, unassigned; (+)) [(+)-propranolol]", "values": [{"measurement": "activity in blocking isoprenaline-induced tachycardia relative to racemic propranolol", "setting": "[2]", "result": "less than a hundredth the activity of racemic propranolol"}, {"measurement": "effectiveness in abolishing ouabain-induced arrhythmias", "setting": "[1]", "result": "equally effective"}]}, {"molecule": "COC(=O)C1=C(C)NC(C)=C([N+](=O)[O-])[C@@H]1c1ccccc1C(F)(F)F", "note": "[(R)-(+)-BAY K8644]", "values": [{"measurement": "[Ca2+]c response to 10 μM (S)-(−)-BAY K8644", "setting": "[3]; preincubation 5 min with 10 μM simple dilution, n=6", "result": "significant inhibition"}, {"measurement": "[Ca2+]c final resting level", "setting": "[3]; preincubation with 10 μM, then 10 μM (S)-(−)-BAY K8644", "result": "lower"}]}, {"molecule": "CC(N=C=O)c1ccccc1", "note": "(stereo not drawn) [α-Methylbenzyl isocyanate]", "values": [{"measurement": "stability in aqueous solution", "setting": "[4]", "result": "will react with water"}]}, {"molecule": "(S)-(−)-propranolol hydrochloride [(S)-(−)-propranolol HCl]", "values": [{"measurement": "effectiveness in abolishing ouabain-induced arrhythmias", "setting": "[1]", "result": "little effect"}]}]}
